# Laboratory results reported in US20060222657A1, “Polypeptide transduction and fusogenic peptides” (priority 2003, published 2006).
# Entries after “also recorded” stand apart in the source; their conditions may differ. Where no end group is shown, it is not given here. [ ]: non-standard residue; d: D form.
# Key:
# tex.loxP.EG cells [1] = test: TAT-Cre mediated recombination of lox-stop-lox eGFP reporter, flow cytometry of live cells; type: cell-based, murine; settings: for effect on TAT-Cre recombination (endocytosis inhibitors): pretreated 30′ in serum-free media, then TAT-Cre for 1 h, replated overnight; for effect on TAT-Cre recombination (free glycosaminglyans): incubated with TAT-Cre 1 hr in serum-free media, eGFP after 16 hr
# mammalian cells = test: TAT-Cre transduction efficiency and cytotoxicity with endosomal release agents (summary statement); type: cell-based
# 3T3 loxP.lacZ cells = test: TAT-Cre recombination of lacZ reporter, in situ β-galactosidase staining; type: cell-based; settings: 100 μM and 200 μM chloroquine with sub-threshold TAT-Cre, overnight, DMEM +10% serum
# Procedure: 3T3 loxP.lacZ cells containing a lacZ reporter expressed after recombination were grown in DMEM (Invitrogen) containing 10% fetal bovine serum. Following recombination cells expressing lacZ were assayed by in situ beta-galactosidase staining (Stratagene).
# To determine the effect of endosomal release by chloroquine, 3T3 loxP.lacZ cells were treated with 0. 25 μM TAT-Cre and 0-200 μM chlorocguine (Sigma) in DMEM +10% FBS overnight. LacZ expression was measured by in situ β-galactosidase staining (Stratagene).
# 3T3 LacZ reporter cells = test: Cytotoxicity (loss of cells) of chloroquine treatment; type: cell-based; settings: effective dose of chloroquine; multiple several cell lines
# Procedure: To recombine DNA and induce eGFP expression, TAT-Cre must escape from macropinosomes. […] Therefore to enhance release from macropinosomes, 3T3 LacZ reporter cells were treated with a sub-threshold dose of TAT-Cre in combination with increasing concentrations of chloroquine, an ion-transporting ATPase inhibitor that prevents vesicle acidification leading to endosomal disruption (FIG. 5a).
# tex.loxP.EG cells [2] = test: TAT-Cre-488 and FM4-64 internalization by flow cytometry; type: cell-based, murine; settings: nystatin 30′ pretreatment, then TAT-Cre-488 and FM4-64 for 1 h
# Procedure: Recombination experiments. To measure the rate of TAT-Cre internalization, tex.loxP.EG cells were plated at 5×10^5 cells/well and treated with 0.5 μM TAT-Cre in RPMI +/− 10% FBS. After each time period, cells were trypsinized for 2′, washed and replated into complete media overnight. For all drug treatments [0-50 μg/mL chondroitin sulfate A, B, or C (Sigma), 0-25 μg/mL heparin (Sigma), 0-100 μg/mL nystatin (Fluka), 0-5 mM […] (Sigma), 0-5 mM amiloride (Sigma) and 0-10 μM cytochalasin D (Sigma)], cells were washed and pretreated for 30′ in serum-free media before the addition of TAT-Cre. Cells were maintained for 1 h in the presence of inhibitors (except for cyclodextrin) aftex which they were washed twice and replated overnight in media containing serum. To measure the effect of nystatin on TAT-Cre internalization, tex.loxP.EG cells were pretreated as described with 10, 25 or 50 μg/mL nystatin for 30′ before the addition of 2 μM TAT-Cre-488 and […] FM4-64. After 1 h, the cells were trypsinized and the fluorescence measured by flow cytometry. […] LacZ expression was measured by in situ β-galactosidase staining (Stratagene). For peptide treatments, tex.loxP.EG cells maintained in RPMI +10% FBS were incubated TAT-Cre and either […] HA2-tat or tat peptide for 16-20 h after which eGFP expression was measured by flow cytometry. […]
# cells = settings: cited from earlier work
# tex.loxP.EG T cells = test: Cell surface binding of TAT-Cre; type: cell-based, murine; settings: free glycosaminglyans in increasing concentrations, 1 hr, serum-free media
# Procedure: Full-length TAT protein has previously been reported to bind strongly to cell surface heparin sulfate proteoglycans. […] To determine whether cell surface binding was a necessary and prerequisite step for TAT-Cre internalization, cells were incubated with TAT-Cre and increasing concentrations of free glycosaminglyans for 1 hr in serum-free media, then washed and replated the cells in complete media, and measured eGFP expression after 16 hr.
# cell surface = settings: increasing concentrations of polyanions; cited from earlier work
# [3] = system: viral promoter within cells in culture; settings: cited from earlier work
molecule,measurement,setting,value
N=C(N)NC(=O)c1nc(Cl)c(N)nc1N [amiloride],effect on TAT-Cre recombination (endocytosis inhibitors),tex.loxP.EG cells [1],dose-dependent inhibition of TAT-Cre transduction into the cells and lack of recombination; also recorded: dose-dependent decrease in recombination
CCN(CC)CCCC(C)Nc1ccnc2cc(Cl)ccc12 (stereo not drawn) [chloroquine],cytotoxicity,mammalian cells,extensive cytotoxicity
same,effect on transduction efficiency of TAT-Cre,mammalian cells,moderately increased transduction efficiency
same,effect on TAT-Cre recombination and LacZ expression,3T3 loxP.lacZ cells,significant increase in recombination and LacZ expression; also recorded: increases TAT-Cre recombination
same,cytotoxicity,3T3 LacZ reporter cells,extensive cytotoxicity
C=C1[C@@H](C)[C@H]2[C@H](Cc3ccccc3)NC(=O)[C@]23[C@H](OC(C)=O)/C=C/[C@@](C)(O)C(=O)[C@@H](C)C/C=C/[C@H]3[C@@H]1O [cytochalasin D],effect on TAT-Cre recombination (endocytosis inhibitors),tex.loxP.EG cells [1],dose-dependent inhibition of TAT-Cre transduction into the cells and lack of recombination; also recorded: dose-dependent decrease in recombination
C[C@@H]1[C@H](O)[C@@H](C)/C=C/C=C/CC/C=C/C=C/C=C/C=C/C(O[C@H]2O[C@H](C)[C@@H](O)[C@H](N)[C@@H]2O)CC2O[C@](O)(CC(O)C(O)CCC(O)CC(O)CC(O)CC(=O)O[C@H]1C)CC(O)C2C(=O)O (stereo partly drawn) [nystatin],effect of nystatin pretreatment on HA2-TAT-mediated enhancement of recombination,"tex.loxP.EG cells [1]; nystatin 30′ in serum-free media, then TAT-Cre +/− 5 mM HA2-TAT for 1 h",inhibited HA2-TAT-mediated enhancement of recombination; also recorded: blocks the effect of HA2-TAT peptide
same,effect on TAT-Cre recombination (endocytosis inhibitors),tex.loxP.EG cells [1],dose-dependent inhibition of recombination
same,FM4-64 endosomal dye internalization after nystatin treatment,tex.loxP.EG cells [2],only a minor decrease
same,TAT-Cre-488 internalization after nystatin treatment,tex.loxP.EG cells [2],near complete loss of TAT-Cre-488 internalization
OC[C@H]1O[C@@H]2O[C@H]3[C@H](O)[C@@H](O)[C@@H](O[C@H]4[C@H](O)[C@@H](O)[C@@H](O[C@H]5[C@H](O)[C@@H](O)[C@@H](O[C@H]6[C@H](O)[C@@H](O)[C@@H](O[C@H]7[C@H](O)[C@@H](O)[C@@H](O[C@H]8[C@H](O)[C@@H](O)[C@@H](O[C@H]1[C@H](O)[C@H]2O)O[C@@H]8CO)O[C@@H]7CO)O[C@@H]6CO)O[C@@H]5CO)O[C@@H]4CO)O[C@@H]3CO [β-cyclodextrin],effect on TAT-Cre recombination (endocytosis inhibitors),tex.loxP.EG cells [1],dose-dependent inhibition of recombination
FITKALGISYGRKKRR [TAT-(37-53)],cell internalization and nuclear localization,cells,not able to transduce into cells
GRKKRRQ RRRPPQ (GRKKRRQRRRPPQ) [TAT-(48-60)],cell internalization and nuclear localization,cells,fully retained the ability for cell internalization and nuclear localization
same,transduction efficiency relative to other active peptide sequences,cells,more efficiently transduced than other active peptide sequences
"GRKKRRQRRR (G[dR][dK][dK][dR][dR][dQ][dR][dR][dR]) [TAT D-isomer peptide, control TAT peptide]",effect of peptide on TAT-Cre recombination (in words),tex.loxP.EG cells [1],only minor increases in recombination
LGISYGRKKRRQRRRPPQ [TAT-(43-60)],cell internalization and nuclear localization,cells,fully retained the ability for cell internalization and nuclear localization
chondroitin sulfate B,effect on TAT-Cre recombination (free glycosaminglyans),tex.loxP.EG cells [1],strongly inhibited subsequent recombination
same,effect on surface binding of TAT-Cre,tex.loxP.EG T cells,prevented surface binding of TAT-Cre
chondroitin sulfate C,effect on TAT-Cre recombination (free glycosaminglyans),tex.loxP.EG cells [1],strongly inhibited subsequent recombination
same,effect on surface binding of TAT-Cre,tex.loxP.EG T cells,prevented surface binding of TAT-Cre
dextran sulphate,effect on intracellular accumulation of TAT,cell surface,competitively blocked
heparin,effect on TAT-Cre recombination (free glycosaminglyans),tex.loxP.EG cells [1],strongly inhibited subsequent recombination
same,effect on surface binding of TAT-Cre,tex.loxP.EG T cells,prevented surface binding of TAT-Cre
same,effect on intracellular accumulation of TAT,cell surface,competitively blocked
"TAT protein: HIV-1 transcriptional activator TAT protein, full length (protein, transducing protein) MEPVDPRLEPWKHPGSQPKTACTNCYCKKCCFHCQVCFITKALGISYGRKKRRQRRRPPQGSQTHQVSLSKQPTSQSRGDPTGPKE",concentration sufficient to induce reporter activity,"[3]; added to the culture media, no external perturbations",1 nM
same,treatment time of maximal increase in biological activity,[3]; all cell types used,5 minutes
"Cre: control Cre protein without TAT, expressed and purified under identical conditions (protein, UniProt P06956 1-343, looked up) Recombinase cre: MSNLLTVHQNLPALPVDATSDEVRKNLMDMFRDRQAFSEHTWKMLLSVCRSWAAWCKLNNRKWFPAEPEDVRDYLLYLQARGLAVKTIQQHLGQLNMLHRRSGLPRPSDSNAVSLVMRRIRKENVDAGERAKQALAFERTDFDQVRSLMENSDRCQDIRNLAFLGIAYNTLLRIAEIARIRVKDISRTDGGRMLIHIGRTKTLVSTAGVEKALSLGVTKLVERWISVSGVADDPNNYLFCRVRKNGVAAPSATSQLSTRALEGIFEATHRLIYGAKDDSGQRYLAWSGHSARVGAARDMARAGVSIPEIMQAGGWTNVNIVMNYIRNLDSETGAMVRLLEDGD",site specific recombination and eGFP expression after treatment,"tex.loxP.EG cells [1]; tex.loxP.EG cells, eGFP measured 16-20 h later by flow cytometry",failed to undergo recombination and express eGFP
